For test [1], the system named is burn wound to the inner forearm. Put plainly: Burn wound to the inner forearm, right side of the wound treated. Type of test: in vivo, human. The text has this:
Color variations in the background of the photos are an artifact of the time of the day and the location when the pictures were taken.
FIGS. 4a-4f illustrate the wound healing effect of a glycerophosphate salt on a burn wound to the inner forearm of a human subject. […] The left-side of the wound received no treatment.

Test [2] relates to surgical wounds resulting from double knee replacement operations. Put plainly: 20-patient clinical study, surgical wounds from double knee replacement operations, one leg treated. It counts as in vivo, human. The text has this:
FIGS. 2a-2d are black and white photocopies of the color photographs of the knees of another human subject. They received simultaneous bilateral total knee replacements. […] Their left leg (on the right side of the photographs) received no CGP treatment.
FIGS. 2a, 2b, 2c and 2d, which are black and white photocopies of the color photographs of the knees of one of the 20 human subjects, illustrate the exemplary results from the clinical study. The subject received simultaneous bilateral total knee replacements. […] Their left leg (on the right side of the photographs) received no CGP treatment. Since the commencement of the treatment, 2 ml of Cellerity® 10 lotion was topically applied to the wounds of the knee surgeries twice daily everyday and will continue for 6 consecutive weeks.
The untreated leg, in contrast, has deep, wandering scars that are almost chasms in their depth and raw openness.
In contrast, SteriStripes were required to be applied to the untreated leg and continued for an additional 6 days.
In addition, two subjects of the first five subjects enrolled in the double knee replacement clinical study described above reported they felt “less heat” in their knee incision site treated with CGP than in the untreated knee site during the early weeks of post operative recovery.

Test [3] deals with wounds resulting from an excision surgery to the nose. Briefly: Bilateral surgical nose excision wounds, one wound treated. It counts as in vivo, human. The settings on record: left-side wound. From the text: FIGS. 3a-3f illustrate the wound healing effect of a glycerophosphate salt on wounds resulting from an excision surgery, e.g., to the nose. A subject received two surgically inflicted wounds to their nose occasioned by removal of benign growths. […] Per physician's request, Neosporin® was applied to both wounds for one week, and Cellerity® was applied topically to the worst of the two wounds, i.e., the left-side surgical wound (on the right side of the photographs), twice daily. The subject was instructed to return to the laboratory for weekly observations.

The subject of test [4] is rhino mucosal passage inflammation. Put plainly: Observation of low CGP concentrations on rhino mucosal passage inflammation. Type of test: in vivo. The note with it: lower concentrations, between 1% and 2% by weight. From the text: In one embodiment of the present invention, an effective amount of a glycerophosphate salt, in a form of dry powder, granules, or gel is applied directly to the wound via spray, physical transfer by finger or implement to form a coating on the wound. The coating can contain a final local concentration of the glycerophosphate salt of about 0.5%-100% by weight. For example, the final local concentration of the glycerophosphate salt can be about 0.5% to about 5%, about 5% to about 15%, about 15% to about 25%, about 25% to about 35%, about 35% to about 45%, about 45% to about 55%, about 55% to about 65%, about 65% to about 75%, about 75% to about 85%, or about 85% to about 100%, by weight.

As for calcium glycerophosphate [CGP], the “time at which the wound healing improvement effect was first observed” value in test [1] (Cellerity lotion (7.5% (w/w) CGP) twice daily for the first three days, from 24 hours post infliction) worked out at 3 days. The wound status result in test [1] (after 16 days of CGP treatment, 7.5% lotion for three days, then 37% (w/w) CGP paste, the untreated side still had a pinkish color) was “completely healed and disappeared”. For the same substance, the “healing of the surgical wound / surgical scar” value in test [2] (Cellerity 10 lotion (10% (w/w) CGP), 2 ml twice daily from approx. 72 hours post operation, up to 14 days post operation, vs untreated leg) was “healed dramatically better”. The “swelling and continuing pale inflammation” value in test [2] (Cellerity 10 lotion twice daily, 14 days post operation, observed in the untreated leg) is on record as “showed neither”. For the same substance, the “need for SteriStrips post staple removal” value in test [2] (treated leg, the untreated leg required SteriStrips for an additional 6 days) is on record as “alleviated the need for application of SteriStrips”. In addition, the “heat felt in the knee incision site” value in test [2] (two of the first five subjects enrolled, treated vs untreated knee site, early weeks of post operative recovery) is given as “less heat”. Besides, the wound appearance result in test [3] (after 6 days of CGP treatment) is recorded as “appeared less deep than it was a week ago”; in test [3] (after 16 days of CGP treatment), “appeared significantly advanced”; in test [3] (after 30 days of CGP treatment), “healed, fully recolonized with epidermal skin”; in test [3] (after 36 days of CGP treatment), “completely healed”; in test [3] (after 51 days of CGP treatment), “completely healed”. Further, the “wound healing, subject's report” value in test [3] (after one day of treatment, Cellerity (7.5% (w/w) CGP) twice daily, Neosporin on both wounds for one week) is “almost immediate apparent change in wound healing in favor of the CGP treated site”. In test [4], the “effect on apparent rhino mucosal passage inflammation” value was “favorably affect”.

(Values after patent US20140363486A1, “METHODS FOR REDUCING OR ALTERING SCAR FORMATION” (Prelief, Inc., priority 2007, published 2014).)
